# Data published in publication PMC10350927 (Journal of Medicinal Chemistry, 2023).
# Counter-ions that a name gives are not always drawn. Marks after values point to notes of the source that are not given here.
# Experiments:
# mSUCNR1 [1] = target: T1, mSUCNR1 (Mus musculus, UniProt Q99MT6); experiment: cAMP assay, agonist potency at mSUCNR1; type: cell-based; parameters: expressed in transfected cells; host or cells: Flp-In T-REx 293; conditions: for cAMP mSUCNR1 pEC50: Flp-In T-REx 293 cells, mean ± SEM, minimum three independent experiments
# T1 sequence (Q99MT6 1-317): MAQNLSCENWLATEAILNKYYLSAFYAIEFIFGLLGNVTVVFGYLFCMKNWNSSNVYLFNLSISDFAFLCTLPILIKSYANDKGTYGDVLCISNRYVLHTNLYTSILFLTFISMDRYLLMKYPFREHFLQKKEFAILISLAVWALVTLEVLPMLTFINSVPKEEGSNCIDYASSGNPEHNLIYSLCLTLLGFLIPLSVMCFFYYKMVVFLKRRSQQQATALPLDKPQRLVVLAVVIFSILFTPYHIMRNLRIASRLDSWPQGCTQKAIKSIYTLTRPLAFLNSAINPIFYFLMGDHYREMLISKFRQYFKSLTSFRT
# hSUCNR1 [2] = target: T2, hSUCNR1 (Homo sapiens, UniProt Q9BXA5); experiment: cAMP assay, inhibition of succinate response at hSUCNR1; type: cell-based; parameters: expressed in transfected cells; host or cells: Flp-In T-REx 293; conditions: for cAMP hSUCNR1 pIC50: inhibition of […] succinate response, mean ± SEM
# T2 sequence (Q9BXA5 1-334): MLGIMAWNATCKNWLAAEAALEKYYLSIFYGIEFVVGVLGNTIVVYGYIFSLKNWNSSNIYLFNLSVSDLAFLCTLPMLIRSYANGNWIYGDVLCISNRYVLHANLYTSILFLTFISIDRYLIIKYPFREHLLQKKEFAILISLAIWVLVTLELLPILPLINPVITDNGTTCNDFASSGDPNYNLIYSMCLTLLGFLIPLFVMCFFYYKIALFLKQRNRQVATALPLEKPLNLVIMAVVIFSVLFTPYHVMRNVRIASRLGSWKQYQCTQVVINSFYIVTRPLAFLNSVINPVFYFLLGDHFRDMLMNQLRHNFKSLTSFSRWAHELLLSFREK
# mSUCNR1 [3] = target: T1, mSUCNR1; experiment: BRET competition binding using 22 as tracer, mSUCNR1; conditions: 1 μM 22, Kd = […]; highest unlabeled ligand 30 μΜ
# hSUCNR1 [4] = target: T2, hSUCNR1; experiment: BRET competition binding using 22 as tracer, hSUCNR1; conditions: 3 μM 22, Kd = 990 nM; mean ± SEM, three experiments
# hSUCNR1 [5] = target: T2, hSUCNR1; experiment: BRET competition binding using 46 as tracer, hSUCNR1; conditions: […] 46, Kd = 310 nM
Compound,cAMP mSUCNR1 pEC50 (mSUCNR1 [1]),further results
"CC(C)(C)OC(=O)NCCCCCCOc1ccc(-c2ccc(C(=O)N[C@@H](CC(=O)O)C(=O)O)o2)cc1 [Compound 8d, (5-(4-((6-((tert-Butoxycarbonyl)amino)hexyl)oxy)phenyl)furan-2-carbonyl)-L-aspartic acid]",6.42 ± 0.11,
"CC(C)(C)OC(=O)NCCN1CCN(Cc2ccc(-c3cccc(C(=O)Nc4ccccc4CC(=O)O)c3)cc2)CC1 [Compound 43, 1-(2-((tert-Butoxycarbonyl)amino)ethyl)-4-((3′-((2-(carboxymethyl)phenyl)carbamoyl)-[1,1′-biphenyl]-4-yl)methyl)piperazin-1-ium 2,2,2-trifluoroacetate]",,cAMP hSUCNR1 pIC50 (hSUCNR1 [2]): 6.82 ± 0.02
"CC(C)(C)OC(=O)NCCNCCCCCCOc1ccc(-c2ccc(C(=O)N[C@@H](CC(=O)O)C(=O)O)o2)cc1 [Compound 17, (S)-N-(2-((tert-Butoxycarbonyl)amino)ethyl)-6-(4-(5-((1,2-dicarboxyethyl)carbamoyl)furan-2-yl)phenoxy)hexan-1-aminium 2,2,2-trifluoroacetate]",7.40 ± 0.11,
"Cc1cc(CN2CCN(C)CC2)ccc1-c1cccc(C(=O)Nc2ccccc2CC(=O)O)c1 [Compound 44, 4-((3′-((2-(Carboxymethyl)phenyl)carbamoyl)-2-methyl-[1,1′-biphenyl]-4-yl)methyl)-1-methylpiperazin-1-ium 2,2,2-trifluoroacetate]",,Competion binding using 22 mSUCNR1 pKi (mSUCNR1 [3]): <4.5 ^d
"NCCCCCOc1ccc(-c2ccc(C(=O)N[C@@H](CC(=O)O)C(=O)O)o2)cc1 [Compound 9c, (S)-5-(4-(5-((1,2-Dicarboxyethyl)carbamoyl)furan-2-yl)phenoxy)pentan-1-aminium 2,2,2-trifluoroacetate]",6.91 ± 0.09,
"CC(C)(C)OC(=O)NCCCCCOc1ccc(-c2cccc(C(=O)N[C@@H](CC(=O)O)C(=O)O)n2)cc1 [Compound 15c, (6-(4-((5-((tert-Butoxycarbonyl)amino)pentyl)oxy)phenyl)picolinoyl)-L-aspartic acid]",5.68 ± 0.11,
"NCCCOc1ccc(-c2ccc(C(=O)N[C@@H](CC(=O)O)C(=O)O)o2)cc1 [Compound 9a, (S)-3-(4-(5-((1,2-Dicarboxyethyl)carbamoyl)furan-2-yl)phenoxy)propan-1-aminium 2,2,2-trifluoroacetate]",7.10 ± 0.11,
"CN(C)CCCCCCOc1ccc(-c2ccc(C(=O)N[C@@H](CC(=O)O)C(=O)O)o2)cc1 [Compound 21, (S)-6-(4-(5-((1,2-Dicarboxyethyl)carbamoyl)furan-2-yl)phenoxy)-N,N-dimethylhexan-1-aminium 2,2,2-trifluoroacetate]",7.20 ± 0.02,
"Cc1ccc(C(=O)Nc2ccccc2CC(=O)O)cc1-c1ccc(Cl)cc1 [Compound 34, 2-(2-(4′-Chloro-6-methyl-[1,1′-biphenyl]-3-carboxamido)phenyl)acetic acid]",,fold increase in potency relative to 32 (hSUCNR1 [2]; hSUCNR1 cAMP): 3 fold; cAMP hSUCNR1 pIC50 (hSUCNR1 [2]): 6.78 ± 0.01
"CC(C)(C)OC(=O)NCCCOc1ccc(-c2ccc(C(=O)N[C@@H](CC(=O)O)C(=O)O)o2)cc1 [Compound 8a, (5-(4-(3-((tert-Butoxycarbonyl)amino)propoxy)phenyl)furan-2-carbonyl)-L-aspartic acid]",6.25 ± 0.09,
O=C(O)C[C@H](NC(=O)c1cccc(-c2ccc(OC(F)(F)F)cc2)n1)C(=O)O [Compound 3],6.58 ± 0.16,Competion binding using 22 mSUCNR1 pKi (mSUCNR1 [3]): 5.8 ± 0.1
"NCCCCOc1ccc(-c2ccc(C(=O)N[C@@H](CC(=O)O)C(=O)O)o2)cc1 [Compound 9b, (5-(4-(4-Aminobutoxy)phenyl)furan-2-carbonyl)-L-aspartic acid hydrochloride]",7.13 ± 0.06,
"CC(C)(C)OC(=O)NCCCCOc1ccc(-c2cccc(C(=O)N[C@@H](CC(=O)O)C(=O)O)n2)cc1 [Compound 15b, (6-(4-(4-((tert-Butoxycarbonyl)amino)butoxy)phenyl)picolinoyl)-L-aspartic acid]",5.97 ± 0.09,
"NCCCCCCOc1ccc(-c2ccc(C(=O)N[C@@H](CC(=O)O)C(=O)O)o2)cc1 [Compound 9d, (S)-6-(4-(5-((1,2-Dicarboxyethyl)carbamoyl)furan-2-yl)phenoxy)hexan-1-aminium 2,2,2-trifluoroacetate]",,Competion binding using 22 mSUCNR1 pKi (mSUCNR1 [3]): 6.2 ± 0.1
"CC(C)(C)OC(=O)NCCCOc1ccc(-c2cccc(C(=O)N[C@@H](CC(=O)O)C(=O)O)n2)cc1 [Compound 15a, (6-(4-(3-((tert-Butoxycarbonyl)amino)propoxy)phenyl)picolinoyl)-L-aspartic acid]",5.90 ± 0.08,
CCOc1ccc(-c2ccc(C(=O)N[C@@H](CC(=O)O)C(=O)O)o2)cc1 [Compound 2],7.01 ± 0.04,Competion binding using 22 mSUCNR1 pKi (mSUCNR1 [3]): 6.2 ± 0.1
"CC(C)(C)OC(=O)NCCCCCOc1ccc(-c2ccc(C(=O)N[C@@H](CC(=O)O)C(=O)O)o2)cc1 [Compound 8c, (5-(4-((5-((tert-Butoxycarbonyl)amino)pentyl)oxy)phenyl)furan-2-carbonyl)-L-aspartic acid]",6.60 ± 0.16,fold decrease in potency on mSUCNR1 (mSUCNR1 [1]; relative to agonist scaffold 2): 2.5 fold
"O=C(O)[C@H]1O[C@H]1C(=O)O [Compound 47, cis-epoxysuccinic acid]",,Competion binding using 22 hSUCNR1 pKi (hSUCNR1 [4]): 4.1 ± 0.1; Competion binding using 46 hSUCNR1 pKi (hSUCNR1 [5]): 4.1 ± 0.3
"CC(C)(C)OC(=O)NCCCCCCOc1ccc(-c2cccc(C(=O)N[C@@H](CC(=O)O)C(=O)O)n2)cc1 [Compound 15d, (6-(4-((6-((tert-Butoxycarbonyl)amino)hexyl)oxy)phenyl)picolinoyl)-L-aspartic acid]",5.76 ± 0.07,
"CC(C)(C)OC(=O)NCCCCOc1ccc(-c2ccc(C(=O)N[C@@H](CC(=O)O)C(=O)O)o2)cc1 [Compound 8b, (5-(4-(4-((tert-Butoxycarbonyl)amino)butoxy)phenyl)furan-2-carbonyl)-L-aspartic acid]",6.47 ± 0.18,
"Cc1cc(Cl)ccc1-c1cccc(C(=O)Nc2ccccc2CC(=O)O)c1 [Compound 35, 2-(2-(4′-Chloro-2′-methyl-[1,1′-biphenyl]-3-carboxamido)phenyl)acetic acid]",,Competion binding using 22 mSUCNR1 pKi (mSUCNR1 [3]): <4.5 ^d
"CC(C)(C)OC(=O)NCCOCCOc1ccc(-c2cccc(C(=O)N[C@@H](CC(=O)O)C(=O)O)n2)cc1 [Compound 15e, (6-(4-(2-(2-((tert-Butoxycarbonyl)amino)ethoxy)ethoxy)phenyl)picolinoyl)-L-aspartic acid]",6.01 ± 0.18,
"CNCCCCCCOc1ccc(-c2ccc(C(=O)N[C@@H](CC(=O)O)C(=O)O)o2)cc1 [Compound 20, (S)-6-(4-(5-((1,2-Dicarboxyethyl)carbamoyl)furan-2-yl)phenoxy)-N-methylhexan-1-aminium 2,2,2-trifluoroacetate]",7.35 ± 0.05,
